# Source: patent publication US20220047596A1, “COMBINATION OF PARP INHIBITOR AND BRD4 INHIBITOR FOR THE TREATMENT OF CANCER” (Board of Regents, The University of Texas System, priority 2018, published 2022)
# Experiments:
# HOC1 cells [1] = assay: Alkaline comet assay; type: cell-based, Human; conditions: 200 nM each, 48 hr
# Experimental: Alkaline Single-Cell Agarose Gel Electrophoresis (Comet) Assays: Alkaline comet assays were performed with Comet Assay Kit (Trevigen) using manufacturer's instructions. Briefly, cell suspensions were embedded in LM (low melting) Agarose and deposited on comet slides. Slides were incubated for 1 hr at 4° C. in lysis solution, followed by immersing slides in freshly prepared alkaline unwinding solution (pH >13) for 20 min at room temperature in the dark. Electrophoresis was carried out for 30 min at 21 V in electrophoresis solution (pH >13). Slides were then stained with SYBR™ Gold (Thermo Fisher Scientific). Tail DNA content was analyzed with Comet score 1.5 software. DNA strand breakage was expressed as “comet tail moment”. The tail moment was measured for a minimum of 50 cells per sample, and average damage from 3 independent experiments was calculated.
# HOC1 cells [2] = assay: Detection of ssDNA by BrdU immunofluorescence under non-denaturing conditions; type: cell-based, Human; conditions: 4 hr after 10 Gy irradiation
# Experimental: Detection of ssDNA by Immunofluorescence: Cells were grown in […] BrdU for two doubling times before irradiation. […] Cells were placed on ice 10 min before irradiation and kept on ice during the irradiation with 10 Gy. […] BrdU was stained (anti-BrdU, ab8152, 1:100 from Abcam) in non-denaturing conditions which enables detection of BrdU incorporated in ssDNA. TE-2000 imaging acquisition system (Nikon) equipped with a 60× objective lens was used to capture images. Stained was quantified by ImageJ.
# U2OS DR-GFP cells = assay: U2OS DR-GFP HR reporter assay; type: cell-based, Human; conditions: 100 nM for 24 hr, then I-Sce1 for 48 hr
# From the text: HR Repair Analysis: U2OS DR-GFP cells contain a single copy of the HR repair reporter substrate DR-GFP, which contains two nonfunctional GFP open reading frames, including one GFP-coding sequence that is interrupted by a recognition site for the I-SceI endonuclease. Expression of I-SceI leads to formation of a DSB in the I-SceI GFP allele, which can be repaired by HR using the nearby GFP sequence lacking the N- and C-termini, thereby producing functional GFP that can be detected by flow cytometry. […] Then, cells were transfected with a plasmid expressing I-SceI (pCBASce) for 48 hr. Cells transfected with an empty vector were used as a negative control. GFP-expressing plasmid (pEGFP-C1) was used for transfection efficiency control. Flow cytometry analysis was performed to detect GFP^+ cells using FACScalibur with CellQuest software (Becton Dickinson). The repair efficiency was scored as the percentage of GFP^+ cells.
# HRD gene signature = HRD gene signature score applied to public transcriptional profiling data; conditions: human or murine tumors; GEO datasets
# From the text: Microarray Analysis and IPA Analysis: Gene expression datasets of GSE29799 (Zuber et al., 2011), GSE66048 (Ambrosini et al., 2015), GSE44929 (Love′ n et al., 2013), GSE85840 (Rhyasen et al., 2016), GSE31365 (Delmore et al., 2011), and GSE43392 (Puissant et al., 2013) were downloaded from Gene Expression Omnibus (GEO) (https://www.ncbi.nlm.nih.gov/geo). Raw data were subjected to intensity normalization using affy package in R (Bioconductor), followed by log transformation and quantile normalization. Normalized data were checked for quality and determined to be free of outliers by analysis using box plots, density plots and MA plots. Differential expression genes after BRD4 inhibition were calculated using a linear model provided by the limma package in R based on the cutoffs: 2 for absolute fold change, 0.05 for p value.
# HRD Score Acquisition from HRD Signature HRD signature consisting of 230 differentially expressed genes was obtained as previously described (Peng et al., 2014). Normalized gene expression data (GSE29799, GSE66048, GSE44929, GSE85840, GSE31365, and GSE43392) after BRD4 inhibition were subjected to unsupervised clustering with these 230 genes. HRD scores were determined by calculating the Pearson's correlations between median centered gene expression levels for HRD signature and gene expression levels for a given sample (Peng et al., 2014).
# CtIP = assay: Western blot of CtIP and DNA damage response proteins; type: cell-based, Human
# Experimental: Protein lysates were analyzed by RPPA in MDACC CCSG (The Cancer Center Support Grant) supported RPPA Core. Antibodies and approaches are described at the RPPA website (https://www.mdanderson.org/research/research-resources/core-facilities/functional-proteomics-rppa-core.html). For visualization, 2D and 3D, concentrations and time were averaged for each cell line. Heat map represents “rank-ordered” changes induced by BRD4i treatment, calculated by summing median-centered protein amount normalized to DMSO. Western Blot: To prepare whole cell lysates, cells were lysed with RIPA buffer (Thermo Fisher Scientific) supplemented with Halt™ Protease and Phosphatase Inhibitor (EDTA-free) Cocktail (Thermo Fisher Scientific). After thorough mixing and incubation at 4° C. for 10 min, lysates were centrifuged at 15,000 g at 4° C. for 15 min, and supernatants were collected. To prepare subcellular fraction of nuclear soluble and chromatin-bound fraction, cells were treated with indicated drugs, and then cells were collected. For fractionation, a Subcellular Protein Fractionation kit (Thermo Fisher Scientific) was used following the manufacturer's instructions. The protein content of the cell was determined, and the cellular lysates were separated by 10% SDS-PAGE, and electro-transferred onto polyvinylidene difluoride (PVDF) membranes. After being blocked with 5% non-fat milk in TBST, the membranes were incubated with primary antibodies at 4° C. overnight, followed by 1:2000 horseradish peroxidase (HRP)-conjugated secondary antibody (Abcam) for 1 hr. Bands were visualized using a Pierce™ ECL Western Blotting Substrate (Thermo Fisher Scientific). Primary antibodies used are listed in Key Resources Table.
# [3] = test system: OVCAR8 and WU-BC3 PDX tumors; assay: IHC of OVCAR8 and WU-BC3 PDX tumors at study termination; design: species or system mice; conditions: mouse, in vivo
# Experimental: Immunohistochemical Staining (IHC) Tissues were fixed in 10% formalin overnight and embedded in paraffin. […] paraffin embedded sections were first deparaffinized in xylene. IHC were carried out with EnVision Detection Systems HRP. Rabbit/Mouse (DAB+) kit (Agilent) following manufacturer's instructions. Endogenous peroxidase was blocked by incubation with 0.3% hydrogen peroxide for 15 min. Antigen retrieval was performed by boiling the slides in citrate buffer (10 mM, pH 6.0) in a water bath for […]. Slides were rinsed in PBS Tween 0.05% and blocked for […] with 5% bovine serum albumin (BSA). Slide were incubated overnight at 4° C. with primary antibodies (anti-BRD4,
# #13440S, 1:200; anti-CtIP, #9201S, 1:200 from Cell Signaling Technology; anti-RAD51, PC130, 1:100; anti-g-H2AX (Ser139), clone JBW301, 1:500 from Millipore Corp; and anti-pRPA32(S4/8), A300-245A, 1:1000 from Bethyl Laboratories), followed by 1 hr with Labelled Polymer-HRP at room temperature. Negative controls were treated identically, but without primary antibody. Subsequently, slides were incubated with DAB+ Chromogen. Slides were counterstained with hematoxylin. After mounting, slides were observed under microscope and photographed.
# OVCAR8 Xenografts: 3×10^6 OVCAR8 cells were injected s.c. into mouse flanks in a 1:1 mix of PBS and Matrigel. […] Tumor volumes were calculated using […]. […]
compound,measurement,setting,value
Cc1sc2c(c1C)C(c1ccc(Cl)cc1)=N[C@@H](CC(=O)OC(C)(C)C)c1nnc(C)n1-2 [JQ1],DNA damage (comet assay),HOC1 cells [1],modestly induced DNA damage
same,formation of ssDNA,HOC1 cells [2],significantly reduced
same,HR repair (percentage of GFP+ cells),U2OS DR-GFP cells,attenuated HR repair
same,HRD score,HRD gene signature,increased HRD score
same,expression of other MRN complex proteins,"CtIP; 200 nM, 48 hr, HeyA8, OVCAR8, HOC7 cells",did not markedly alter
same,CtIP and pRPA32 (S4/8) protein,"CtIP; HOC1 and HeyA8 cells, dose and time course",decreased CtIP and phosphorylated RPA32
same,RAD51 levels,"CtIP; HeyA8 and HOC7, 200 nM, 48 hr",modestly decreased
same,BRCA1 levels,"CtIP; MCAS, 200 nM, 48 hr",modestly decreased
same,CtIP protein,"CtIP; all lines assessed, 200 nM, 48 hr",consistently decreased
same,CtIP and pRPA32 (S4/8) (IHC),[3],decreased
same,gH2AX (IHC),[3],increased
